Experimental data taken from patent US6528286B1, “Mammalian cell culture process for producing glycoproteins” (Genentech, Inc., priority 1998, dated 2003).
“Also recorded” adds a separate entry of the source. Like-named read-outs stand apart in the source and are kept apart here.

Key:
[1] = tested on: Cytosolic and membrane-associated sialidase I; settings: partially purified extracts from rat liver or rat skeletal muscle; cited from earlier work
CHO-K1 cells = settings: copper-supplemented culture medium; cited from earlier work
HeLa cell = HeLa cell culture medium; cited from earlier work
[2] = tested on: CHO cells producing TNFR1-IgG1; assay: Impact of CuCl2 on growth and viability of CHO cells under growth conditions; format: cell-based, Chinese hamster
Protocol: CuCl2 was added to the culture medium before inoculation with cells at concentrations from 0 to 3.2 mM. Inhibition of growth could be detected above 0.2 mM.
CuCl2 was added to the culture medium before inoculation with cells at concentrations from 0-3.2 mM. A toxic effect could be observed at concentrations above 0.2 mM. Concentrations above 0.4 mM lead to rapid cell death.
Since heavy metals such as copper are toxic the effects of CuCl2 concentrations from 0-5 mM on growth and viability of CHO cells at 37° C. and 33° C. incubation temperature producing a glycoprotein were investigated(FIGS. 3, 4 and 5). Toxic effects and growth inhibition could be detected above 0.2 mM CuCl2.

[3] = tested on: CHO cells producing TNFR1-IgG1; assay: Incubation of high cell concentration perfusion culture suspension in spinner flasks with CuCl2; format: cell-based, Chinese hamster; settings: 1 mM and 5 mM CuCl2, 24 hours at 33° C.
Protocol: FIG. 2: Sialic acid (SA) content :of TNFR1-IgG1 after incubation of cell culture suspension taken from a perfusion culture at high cell concentration (6% packed cell volume, 77% viability at start of incubation) compared to starting sialic acid content before incubation. A sample of the perfusion culture was removed and incubated in spinner flasks containing 0, 1 mM and 5 mM CuCl2 for 24 hours at 33° C.
Sialic acid content was analyzed by the method of Warren, L. (1959) J. Biol. Chem. 234:1971-1975. or the method of Anumula, K. R. (1995) Anal. Biochem. 230:24-30.
To test the effect of CuCl2 on stabilization of the sialic acid content high cell concentration from a perfusion culture were incubated over night in spinner flasks with the addition 0, 1 and 5 mM CuCl2.

[4] = tested on: CHO cells producing TNFR1-IgG1; format: cell-based, Chinese hamster; settings: for SA content on day 9 / SA content on day 12 / Sialic Acid content on day 9 / Sialic Acid content on day 12: TNFR1-IgG1
Description: The Chinese hamster ovary (CHO)cell line used as the mammalian host cell line was derived from CHO DG44 cells. The gene encoding the soluble type 1 TNFR-IgG1 was introduced into CHO DG44 cells by transfection. This was accomplished using the calcium phosphate technique for introducing DNA into mammalian cells. Clones expressing the TNFR1-IgG1 were amplified in methotrexate yielding high expressing clones and subsequently adapted to serum free medium. These cells were under continuous selective pressure until transferred to nonselective medium for growth and expansion of the inoculum. To provide cells for TNFR1-IgG1 production cultures the cell population described above was expanded from the medium containing methotrexate by serial subcultivations in vessels of increasing volumes to growth medium containing no methotrexate. For these steps of the process the non selective growth medium was DMEM/HAM F-12 based formulation (see, for example, U.S. Pat. No. 5,122,469, herein incorporated by reference in its entirety) with modified concentrations of some components, such as glucose, amino acids, salts, sugar, vitamins glycine, hypoxanthine, and thymidine; recombinant human insulin, hydrolyzed peptone (Protease Peptone 2 or 3, Primatone HS or Primatone RL), a cell protective agent such as Pluronic F68 (pluronic polyol) or the equivalent; Gentamycin; and trace elements. The cultures were controlled at pH 7.2+/−0.4 by the use of CO2 gas (acid) and /or Na2CO3 (base). Temperature was controlled near 37° C. during the growth period. Dissolved oxygen was maintained above 5% of air saturation by direct sparging with air and/or oxygen gas. The growth phase for each culture was followed by a second phase or transition phase wherein culture parameters were changed from growth to production conditions. During this transition phase the temperature of the culture system was decreased, generally to about between 30 and 35° C. and usually about 33° C. Copper chloride was added to the culture medium. Product accumulated during the production phase was analyzed for sialic acid content. […] Sialic acid content was analyzed by the method of Warren, L. (1959) J. Biol. Chem. 234:1971-1975. or the method of Anumula, K. R. (1995) Anal. Biochem. 230:24-30. Glycoprotein production culture was inoculated at 0.2% packed cell volume (PCV). Cells were grown for about 2 days under optimal growth conditions (37° C., low osmolality). When reaching 1% PCV (after about 2 days) the culture conditions were changed from optimal growth to production conditions. This means that growth is slowed under these conditions. This change includes a temperature shift to 33° C. and the addition of a complex feed (a concentrated form of media components). Due to the toxic effects of copper additions higher than 0.2 mM under growth conditions copper additions in the production phase of the glycoprotein production process were investigated. In the process, maximal cell mass was reached after the fifth day in culture. Since significant desialyation occurs after the fifth day in culture and especially significant decrease after about the eighth day in culture (FIG. 1), copper additions of 0.5 and 1.0 mM at day 6 and day 8 of the culture were investigated (FIG. 6). Further experiments were run to test copper additions at other concentrations. 0.38 mM copper was added.

[5] = 0.5 and 1.0 mM CuCl2 added in production phase
[6] = copper 0.38 mM added on day 6, Table III
[7] = copper 0.5 mM added on day 6, Table II
[8] = copper 0.5 mM added on day 6, Table III
[9] = copper 0.5 mM added on day 8, Table II
[10] = copper 1.0 mM added on day 6, Table II
[11] = copper 1.0 mM added on day 8, Table II

[Cu+2] [Cu^2+]
Copper ion concentration at which sialidase I was inhibited [1]: approximately 1 mM | LD50 (CHO-K1 cells): 126 µM | Copper ion concentrations that did not interfere with cell growth (HeLa cell): 1-100 μm

[Cl][Cu][Cl] [CuCl2]
Toxic effect at 37 versus 33° C. incubation temperature ([2]; 0-5 mM CuCl2): very similar for 37 °C and 33 °C | CuCl2 concentration above which inhibition of growth could be detected ([2]; added before inoculation, 0 to 3.2 mM (0-5 mM)): above 0.2 mM | Copper concentration above which cell death results ([2]; conditions normally associated with cell growth): above 0.4 mM | CuCl2 concentration above which a toxic effect on viability could be observed ([2]; growth conditions, added before inoculation): above 0.2 mM | Stabilization of sialic acid content of TNFR1-IgG1 [3]: effective in stabilizing the sialic acid content in a dose dependent manner; also recorded: effective in stabilizing the SA content in a dose dependent manner | Culture performance and productivity [4, 5]: good culture performance and productivity | Sialic acid content in production cultures [4, 5]: stabilized | SA content on day 9 [4, 6]: 5.5 mol/mol | SA content on day 12 [4, 6]: 4.9 mol/mol | Sialic Acid content on day 9 [4, 7]: 5.3 mol/mol | Sialic Acid content on day 12 [4, 7]: 4.9 mol/mol | SA content on day 9 [4, 8]: 5.3 mol/mol | SA content on day 12 [4, 8]: 5.0 mol/mol | Sialic Acid content on day 9 [4, 9]: 5.0 mol/mol | Sialic Acid content on day 12 [4, 9]: 5.0 mol/mol | Sialic Acid content on day 9 [4, 10]: 5.0 mol/mol | Sialic Acid content on day 12 [4, 10]: 5.0 mol/mol | Sialic Acid content on day 9 [4, 11]: 5.0 mol/mol | Sialic Acid content on day 12 [4, 11]: 5.0 mol/mol | Product concentr. on day 9 [4, 6]: 324 mg/L | Product concentr. on day 12 [4, 6]: 518 mg/L | Product concentr. on day 9 [4, 7]: 230 mg/L | Product concentr. on day 12 [4, 7]: 304 mg/L | Product concentr. on day 9 [4, 8]: 350 mg/L | Product concentr. on day 12 [4, 8]: 545 mg/L | Product concentr. on day 9 [4, 9]: 244 mg/L | Product concentr. on day 12 [4, 9]: 417 mg/L | Product concentr. on day 9 [4, 10]: 218 mg/L | Product concentr. on day 12 [4, 10]: 286 mg/L | Product concentr. on day 9 [4, 11]: 289 mg/L | Product concentr. on day 12 [4, 11]: 371 mg/L
